Experiment in all cases: Cytotoxicity (growth inhibition), 4 h drug exposure, methylene blue staining
In one test the test system is UV4. It counts as cell-based, rodent. As to conditions: Cricetulus griseus; UV4 mutant AA8 line defective in excision repair; 4 hours exposure, then three days incubation. How it is done: (§1) Compounds of the invention were tested for cytotoxicity against four different cell lines, all of which are widely available in the art. AA8 is a wild type rodent cell line. UV4 is a mutant AA8 cell line defective in excision repair, and hypersensitive to many alkylating agents. EMT6 is a widely-used rodent line. SKOV is a human ovarian cell line.
(§2) Cell culture assays were performed in 96-well microtitre trays. Compounds of the invention were added in culture medium, using serial two-fold dilutions to provide duplicate cultures at five different concentrations for each of eight drugs (plus eight controls) per tray. Drugs were dissolved in water or DMSO immediately prior to addition to the cell culture. After 4 hours, drugs were removed by washing cultures three times with fresh medium, and the trays were incubated for a futher three days. Cell density was then determined by staining with methylene blue as described previously (Finlay, G. J., et al, Anal. Biochm. 1984, 139, 272-277) and the IC50 was calculated as the drug concentration providing 50% inhibition of growth relative to the controls.

For another test, the system named is SKOV3. It counts as cell-based. The following applies: SK-OV-3; human ovarian cell line; 4 hours exposure, then three days incubation. How it is done:
as §1, §2

A further test deals with EMT6. Format: cell-based. As to conditions: Mus musculus; EMT6 rodent line; 4 hours exposure, then three days incubation. How it is done: as §1, §2
A further test concerns AA8. It counts as cell-based. The following applies: Cricetulus griseus, CHO-AA8; AA8 wild type rodent cell line; 4 hours exposure, then three days incubation. How it is done: as §1, §2

Broadly, the IC50 is the midpoint of a concentration-inhibition curve. Low values mean inhibition by little substance, high ones a need for much substance. On to `COc1cc2cc(C(=O)N3CC(CCl)c4c3cc(N)c3ccccc43)[nH]c2c(OC)c1OC` (stereo not drawn) [15a, 5-amino-1-(chloromethyl)-3-[(5,6,7-trimethoxyindol-2-yl)carbonyl]-1,2-dihydro-3H-benz [e] indole], for which the IC50 was determined as 0.28 nM in the test with UV4, 1 nM in the test on SKOV3, 0.27 nM in the test with EMT6 and 0.45 nM with AA8.
The like results for `COc1cc2cc(C(=O)N3C[C@H](CCl)c4c3cc(N)c3ccccc43)[nH]c2c(OC)c1OC` [15aR, (R)-5-amino-1-(chloromethyl)-3-[(5,6,7-trimethoxyindol-,2-yl)carbonyl]-1,2-dihydro-3H-benz[e]indole] were, in that order, 2.6 nM, 7.8 nM, 7 nM and 13.6 nM.
The like results for `COc1cc2cc(C(=O)N3C[C@@H](CCl)c4c3cc(N)c3ccccc43)[nH]c2c(OC)c1OC` [15aS, (S)-5-amino-1-(chloromethyl)-3-[(5,6,7-trimethoxyindol-2-yl)carbonyl]-1,2-dihydro-3H-benz[e]indole] were, in that order, 0.1 nM, 0.5 nM, 0.1 nM and 0.2 nM.
For `Nc1ccc2[nH]c(C(=O)N3CC(CCl)c4c3cc(N)c3ccccc43)cc2c1` (stereo not drawn) [15b, 5-amino-3-[(5-aminoindol-2-yl)carbonyl]-1-(chloromethyl)-1,2-dihydro-3H-benz [e] indole] the same measures were 1 nM, 3 nM, 0.8 nM and 2.4 nM.
As to `CC(=O)Nc1ccc2[nH]c(C(=O)N3CC(CCl)c4c3cc(N)c3ccccc43)cc2c1` (stereo not drawn) [15c, 3-[[5-(acetylamino)indol-2-yl]carbonyl]-5-amino-1-(chloromethyl)-1,2-dihydro-3H-benz[e]indole], the IC50 turned out to be 7.6 nM with UV4, 18 nM with SKOV3, 5.2 nM with EMT6 and 12.5 nM in the test on AA8.
For `COc1ccc2[nH]c(C(=O)N3CC(CCl)c4c3cc(N)c3ccccc43)cc2c1` (stereo not drawn) [15d, 5-amino-1-(chloromethyl)-3-[(5-methoxyindol-2-yl)carbonyl]-1,2-dihydro-3H-benz[e] indole], the IC50 in the test on UV4 amounted to 0.8 nM; with SKOV3, 1.8 nM; in the test on EMT6, 0.9 nM; in the test with AA8, 1.2 nM.
The like results for `CN(C)CCOc1ccc2[nH]c(C(=O)N3CC(CCl)c4c3cc(N)c3ccccc43)cc2c1` (stereo not drawn) [15e, 5-amino-1-(chloromethyl)-3-[[5-[2-(dimethylamino)ethoxy]indol-2-yl]carbonyl]-1,2-dihydro-3H-benz [e] indole] were, in that order, 1.4 nM, 6.4 nM, 0.9 nM and 3.5 nM.
The like results for `CCCC(=O)Nc1cc(/C=C/C(=O)N2CC(CCl)c3c2cc(N)c2ccccc32)n(C)c1` (stereo not drawn) [15i] were, in that order, 16 nM, 22 nM, 5.9 nM and 31 nM.
The like results for `COc1cccc(/C=C/C(=O)N2CC(CCl)c3c2cc(N)c2ccccc32)c1` (stereo not drawn) [15l, 5-amino-1-(chloromethyl)-3-[(E)-3-methoxycinnamoyl]-1,2-dihydro-3H-benz[e]indole] were, in that order, 0.4 nM, 0.6 nM, 0.2 nM and 0.3 nM.
`COc1cc2cc(C(=O)N3CC(COS(C)(=O)=O)c4c3cc(N)c3ccccc43)[nH]c2c(OC)c1OC` (stereo not drawn) [15o, 5-amino-1-[(methanesulfonyloxy)methyl]-3-[(5,6,7-trimethoxyindol-2-yl)carbonyl]-1,2-dihydro-3H-benz[e]indole]: the IC50 came out at 1330 nM with SKOV3, 233 nM with EMT6 and 660 nM in the test with AA8.

The values are drawn from EP0938474B1, “CYCLOPROPYLINDOLE COMPOUNDS AND THEIR USE AS PRODRUGS” (AUCKLAND UNISERVICES LIMITED, priority 1996, dated 1998).
